Experimental data reported in patent publication US20220229065A1, “SENSORS AND METHODS FOR RAPID MICROBIAL DETECTION” (BAMBU VAULT LLC, priority 2019, published 2022).

Columns and labels:
[1] = Additives that stabilize the dye within the particles; format: physicochemical; details: antioxidant additive in polymer matrix
Source text: The loading of dyes within the particles is as high as possible without degrading the cohesion of the polymer. The additives that stabilize the dye within the particles have been studied.

[2] = Retention of Epolight 1117 tetrakis aminium dye in particles during emulsification and evaporation; format: physicochemical; details: retention in the particles during emulsion and evaporation process; surfactant as labelled
Source text: In the emulsion method of encapsulation, a surfactant is necessary to help keep the emulsion stable. While Aerosol® TR-70 (sodium bis(tridecyl) sulfosuccinate) could be used as an emulsifier to prepare polymer particles encapsulating Epolight™ 1117 tetrakis aminium dye, TR-70 only provided limited stabilization effects on the tetrakis aminium dye. […] Reducing the amount of SDS in the aqueous phase led to lower Epolight™ 1117 retention and larger particle size (Table 2).

β-lactamase blend = test: Reaction of Formula (12) conjugate with β-lactamase (color change in vial); format: biochemical
Description: (§1) In four different vials, compound 4 (1.0 mg in each vial) was dissolved in DMSO (0.3 mL). To one vial, 25 μL of β-lactamase blend was added. To another vial 25 μL PBS was added as the negative control. To the other two vials 25 μL of papain and chymotrypsin were added separately.

chymotrypsin = test: Reaction of Formula (12) conjugate with chymotrypsin (color change, selectivity control); format: biochemical; details: 1.0 mg in 0.3 mL DMSO + 25 μL chymotrypsin
Description: as §1

papain = target: T1, papain (Carica papaya, UniProt P00784); test: Reaction of Formula (12) conjugate with papain (color change, selectivity control); format: biochemical; details: 1.0 mg in 0.3 mL DMSO + 25 μL papain
T1 sequence (P00784 134-345): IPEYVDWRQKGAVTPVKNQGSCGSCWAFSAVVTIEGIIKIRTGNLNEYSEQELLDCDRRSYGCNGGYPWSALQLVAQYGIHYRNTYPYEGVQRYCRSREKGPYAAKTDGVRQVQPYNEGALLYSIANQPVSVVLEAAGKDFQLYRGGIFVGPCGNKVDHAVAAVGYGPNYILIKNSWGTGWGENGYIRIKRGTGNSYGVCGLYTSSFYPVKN
Description: as §1

[3] = 1.0 mg in 0.3 mL DMSO + 25 μL β-lactamase blend

Structure (SMILES): Cc1cc(C(C)(C)C)c(O)c(C)c1Cn1c(=O)n(Cc2c(C)cc(C(C)(C)C)c(O)c2C)c(=O)n(Cc2c(C)cc(C(C)(C)C)c(O)c2C)c1=O [Cyanox® 1790, 1,3,5-tris(4-tert-butyl-3-hydroxy-2,6-dimethylbenzyl)-1,3,5-triazine-2,4,6-(1H,3H,5H)-trione]
- impact on dye stability within the particles [1]: positive impact

Structure (SMILES): CCCCCCCCCCCCOS(=O)(=O)[O-].[Na+] [Sodium dodecyl sulfate, sodium dodecyl sulfate]
- % Epolight ™ 1117 Retention [2]: 85-90%

Structure (SMILES): CCCCCCCCCCCCCOC(=O)CC(C(=O)OCCCCCCCCCCCCC)S(=O)(=O)O.[Na] (centres unmarked) [TR-70, sodium bis(tridecyl) sulfosuccinate]
- % Epolight ™ 1117 Retention [2]: 50%

Structure (SMILES): COc1ccc(COC(=O)C2=C(CSc3ccc4c(c3)Oc3cc(SCC5=C(C(=O)OCc6ccc(OC)cc6)N6C(=O)[C@H](NC(=O)Cc7ccccc7)[C@@H]6SC5)ccc3C43OC(=O)c4ccccc43)CS[C@H]3[C@@H](NC(=O)Cc4ccccc4)C(=O)N23)cc1 [compound 4]
- color change with PBS (negative control, no enzyme) (β-lactamase blend; 1.0 mg in 0.3 mL DMSO + 25 μL PBS): did not change color at all
- color change after β-lactamase addition (onset) (β-lactamase blend; [3]): started changing color from light yellow to brownish-red within a minute
- time to very strong color change after β-lactamase addition (β-lactamase blend; [3]): less than 5 minutes
- color change after chymotrypsin addition (chymotrypsin): almost no color change even after 30 minutes
- color change after papain addition (papain): slightly changed color to light brown
